Patent publication US20250019387A1 (Frontier Medicines Corporation, priority 0001, published 2025)

These compounds were tested against KRAS G12C and cRAF (Ras-binding domain) interaction (Homo sapiens (Human), UniProt P01116, C118S/C51S/C80L/G12C) (assay: Inhibition of KRAS G12C and cRAF binding (AlphaScreen)). Details: GMPPNP-loaded KRAS G12C, 19-20 hours incubation with compound; read-out: IC50 (Inhibition of KRAS G12C and cRAF Binding).
Method in brief: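 Compounds (DMSO) preincubated 19-20 h at room temperature, then RBD with streptavidin donor and glutathione acceptor beads added in 25 mM Hepes pH 7.4, 150 mM NaCl, 5 mM MgCl2, 0.01% Triton X-100, 2% DMSO for 60-90 min. Emission 570 nm (excitation 680 nm); IC50 by 4-parameter fit. Counter-screen used biotin-AviTag-GST instead of RBD.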

Chain of KRAS G12C and cRAF (Ras-binding domain) interaction (P01116 other isoform, or with tags, fused parts or gaps G12C/C51S/C80L/C118S): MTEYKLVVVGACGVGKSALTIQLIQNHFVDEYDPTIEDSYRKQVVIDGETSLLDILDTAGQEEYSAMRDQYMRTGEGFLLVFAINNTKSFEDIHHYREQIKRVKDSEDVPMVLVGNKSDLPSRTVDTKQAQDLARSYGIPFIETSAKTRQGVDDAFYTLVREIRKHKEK

IC50 [nM]	SMILES
100 to 500	Cc1cc(/C=C/C(=O)N2CC[C@@H](N(C)c3nc(OC[C@@]45CCCN4C[C@H](F)C5)nc4c(F)c(-c5cccc6cccc(Cl)c56)ncc34)C2)nc(C)n1 [Example 204, (E)-1-((R)-3-((7-(8-chloronaphthalen-1-yl)-8-fluoro-2-(((2R,7aS)-2-fluorohexahydro-1H-pyrrolizin-7a-yl)methoxy)pyrido[4,3-d]pyrimidin-4-yl)(methyl)amino)pyrrolidin-1-yl)-3-(2,6-dimethylpyrimidin-4-yl)prop-2-en-1-one]
10 to 100	Cc1c(F)ccc2cccc(-c3ncc4c(N(C)[C@@H]5CCN(C(=O)/C=C/[C@H]6CCN6C)C5)nc(OC[C@@]56CCCN5C[C@H](F)C6)nc4c3F)c12 [Example 206, (E)-1-((R)-3-((8-fluoro-7-(7-fluoro-8-methylnaphthalen-1-yl)-2-(((2R,7aS)-2-fluorotetrahydro-1H-pyrrolizin-7a(5H)-yl)methoxy)pyrido[4,3-d]pyrimidin-4-yl)(methyl)amino)pyrrolidin-1-yl)-3-((R)-1-methylazetidin-2-yl)prop-2-en-1-one]
10 to 100	C#Cc1c(F)ccc2cccc(-c3ncc4c(N(C)[C@@H]5CCN(C(=O)/C=C/c6cc(C)nc(C)n6)C5)nc(OC[C@@]56CCCN5C[C@H](F)C6)nc4c3F)c12 [Example 207, (E)-3-(2,6-dimethylpyrimidin-4-yl)-1-((R)-3-((7-(8-ethynyl-7-fluoronaphthalen-1-yl)-8-fluoro-2-(((2R,7aS)-2-fluorotetrahydro-1H-pyrrolizin-7a(5H)-yl)methoxy)pyrido[4,3-d]pyrimidin-4-yl)(methyl)amino)pyrrolidin-1-yl)prop-2-en-1-one]
10 to 100	CN(c1nc(OC[C@@]23CCCN2C[C@H](F)C3)nc2c(F)c(-c3cccc4ccc(F)c(Cl)c34)ncc12)[C@@H]1CCN(C(=O)C#CCN2CC(F)(F)C2)C1 [Example 209, 1-((R)-3-((7-(8-chloro-7-fluoronaphthalen-1-yl)-8-fluoro-2-(((2R,7aS)-2-fluorohexahydro-1H-pyrrolizin-7a-yl)methoxy)pyrido[4,3-d]pyrimidin-4-yl)(methyl)amino)pyrrolidin-1-yl)-4-(3,3-difluoroazetidin-1-yl)but-2-yn-1-one]
10 to 100	CC(C)N1CC[C@@H]1/C=C/C(=O)N1CC[C@@H](N(C)c2nc(OC[C@@]34CCCN3C[C@H](F)C4)nc3c(F)c(-c4cccc5ccc(F)c(Cl)c45)ncc23)C1 [Example 211, (E)-1-((R)-3-((7-(8-chloro-7-fluoronaphthalen-1-yl)-8-fluoro-2-(((2R,7aS)-2-fluorotetrahydro-1H-pyrrolizin-7a(5H)-yl)methoxy)pyrido[4,3-d]pyrimidin-4-yl)(methyl)amino)pyrrolidin-1-yl)-3-((R)-1-isopropylazetidin-2-yl)prop-2-en-1-one]
10 to 100	COCCN1CC[C@@H]1/C=C/C(=O)N1CC[C@@H](N(C)c2nc(OC[C@@]34CCCN3C[C@H](F)C4)nc3c(F)c(-c4cccc5ccc(F)c(Cl)c45)ncc23)C1 [Example 212, (E)-1-((R)-3-((7-(8-chloro-7-fluoronaphthalen-1-yl)-8-fluoro-2-(((2R,7aS)-2-fluorotetrahydro-1H-pyrrolizin-7a(5H)-yl)methoxy)pyrido[4,3-d]pyrimidin-4-yl)(methyl)amino)pyrrolidin-1-yl)-3-((R)-1-(2-methoxyethyl)azetidin-2-yl)prop-2-en-1-one]
10 to 100	CN(c1nc(OC[C@@]23CCCN2C[C@H](F)C3)nc2c(F)c(-c3cccc4ccc(F)c(Cl)c34)ncc12)[C@@H]1CCN(C(=O)/C=C/[C@H]2CCN2CC2COC2)C1 [Example 213, (E)-1-((R)-3-((7-(8-chloro-7-fluoronaphthalen-1-yl)-8-fluoro-2-(((2R,7aS)-2-fluorotetrahydro-1H-pyrrolizin-7a(5H)-yl)methoxy)pyrido[4,3-d]pyrimidin-4-yl)(methyl)amino)pyrrolidin-1-yl)-3-((R)-1-(oxetan-3-ylmethyl)azetidin-2-yl)prop-2-en-1-one]
100 to 500	Cc1nsc(/C=C/C(=O)N2C[C@H](F)[C@@H](N(C)c3nc(OC[C@@]45CCCN4C[C@H](F)C5)nc4c(F)c(-c5cccc6cccc(Cl)c56)ncc34)C2)n1 [Example 215, (E)-1-((3S,4S)-3-((7-(8-chloronaphthalen-1-yl)-8-fluoro-2-(((2R,7aS)-2-fluorohexahydro-1H-pyrrolizin-7a-yl)methoxy)pyrido[4,3-d]pyrimidin-4-yl)(methyl)amino)-4-fluoropyrrolidin-1-yl)-3-(3-methyl-1,2,4-thiadiazol-5-yl)prop-2-en-1-one]
100 to 500	Cc1nccc(/C=C/C(=O)N2C[C@H](F)[C@@H](N(C)c3nc(OC[C@@]45CCCN4C[C@H](F)C5)nc4c(F)c(-c5cccc6cccc(Cl)c56)ncc34)C2)n1 [Example 216, (E)-1-((3S,4S)-3-((7-(8-chloronaphthalen-1-yl)-8-fluoro-2-(((2R,7aS)-2-fluorotetrahydro-1H-pyrrolizin-7a(5H)-yl)methoxy)pyrido[4,3-d]pyrimidin-4-yl)(methyl)amino)-4-fluoropyrrolidin-1-yl)-3-(2-methylpyrimidin-4-yl)prop-2-en-1-one]
> 500	CN(c1nc(OC[C@@]23CCCN2C[C@H](F)C3)nc2c(F)c(-c3cccc4cccc(Cl)c34)ncc12)[C@@H]1CN(C(=O)/C=C/c2nc(C(C)(C)O)no2)C[C@H]1F [Example 217, (E)-1-((3R,4R)-3-((7-(8-chloronaphthalen-1-yl)-8-fluoro-2-(((2R,7aS)-2-fluorotetrahydro-1H-pyrrolizin-7a(5H)-yl)methoxy)pyrido[4,3-d]pyrimidin-4-yl)(methyl)amino)-4-fluoropyrrolidin-1-yl)-3-(3-(2-hydroxypropan-2-yl)-1,2,4-oxadiazol-5-yl)prop-2-en-1-one]
10 to 100	CN(CC1CN(C(=O)/C=C/[C@@H]2CCN2C)C1)c1nc(OC[C@@]23CCCN2C[C@H](F)C3)nc2c(F)c(-c3cccc4cccc(Cl)c34)ncc12 [Example 218, (E)-1-(3-(((7-(8-chloronaphthalen-1-yl)-8-fluoro-2-(((2R,7aS)-2-fluorotetrahydro-1H-pyrrolizin-7a(5H)-yl)methoxy)pyrido[4,3-d]pyrimidin-4-yl)(methyl)amino)methyl)azetidin-1-yl)-3-((S)-1-methylazetidin-2-yl)prop-2-en-1-one]
10 to 100	CN(CC1CN(C(=O)/C=C/[C@H]2CCN2C)C1)c1nc(OC[C@@]23CCCN2C[C@H](F)C3)nc2c(F)c(-c3cccc4cccc(Cl)c34)ncc12 [Example 219, (E)-1-(3-(((7-(8-chloronaphthalen-1-yl)-8-fluoro-2-(((2R,7aS)-2-fluorotetrahydro-1H-pyrrolizin-7a(5H)-yl)methoxy)pyrido[4,3-d]pyrimidin-4-yl)(methyl)amino)methyl)azetidin-1-yl)-3-((R)-1-methylazetidin-2-yl)prop-2-en-1-one]
10 to 100	CCN1CC[C@@H]1/C=C/C(=O)N1CC[C@@H](N(C)c2nc(OC[C@@]34CCCN3C[C@H](F)C4)nc3c(F)c(-c4cccc5cccc(Cl)c45)ncc23)C1 [Example 223, (E)-1-((R)-3-((7-(8-chloronaphthalen-1-yl)-8-fluoro-2-(((2R,7aS)-2-fluorotetrahydro-1H-pyrrolizin-7a(5H)-yl)methoxy)pyrido[4,3-d]pyrimidin-4-yl)(methyl)amino)pyrrolidin-1-yl)-3-((R)-1-ethylazetidin-2-yl)prop-2-en-1-one]

SMILES	IC50 [nM]
CN(c1nc(OC[C@@]23CCCN2C[C@H](F)C3)nc2c(F)c(-c3cccc4cccc(Cl)c34)ncc12)[C@@H]1CCN(C(=O)/C=C/c2nc(C3(F)CCC3)no2)C1 [Example 208, (E)-1-((R)-3-((7-(8-chloronaphthalen-1-yl)-8-fluoro-2-(((2R,7aS)-2-fluorotetrahydro-1H-pyrrolizin-7a(5H)-yl)methoxy)pyrido[4,3-d]pyrimidin-4-yl)(methyl)amino)pyrrolidin-1-yl)-3-(3-(1-fluorocyclobutyl)-1,2,4-oxadiazol-5-yl)prop-2-en-1-one]	< 10
CN(CC1CN(C(=O)/C=C/[C@@H]2CCN2C)C1)c1nc(OC[C@@]23CCCN2C[C@H](F)C3)nc2c(F)c(-c3cccc4ccc(F)c(Cl)c34)ncc12 [Example 220, (E)-1-(3-(((7-(8-chloro-7-fluoronaphthalen-1-yl)-8-fluoro-2-(((2R,7aS)-2-fluorotetrahydro-1H-pyrrolizin-7a(5H)-yl)methoxy)pyrido[4,3-d]pyrimidin-4-yl)(methyl)amino)methyl)azetidin-1-yl)-3-((S)-1-methylazetidin-2-yl)prop-2-en-1-one]	< 10
CN(CC1CN(C(=O)/C=C/[C@H]2CCN2C)C1)c1nc(OC[C@@]23CCCN2C[C@H](F)C3)nc2c(F)c(-c3cccc4ccc(F)c(Cl)c34)ncc12 [Example 221, (E)-1-(3-(((7-(8-chloro-7-fluoronaphthalen-1-yl)-8-fluoro-2-(((2R,7aS)-2-fluorotetrahydro-1H-pyrrolizin-7a(5H)-yl)methoxy)pyrido[4,3-d]pyrimidin-4-yl)(methyl)amino)methyl)azetidin-1-yl)-3-((R)-1-methylazetidin-2-yl)prop-2-en-1-one]	< 10
CN(c1nc(OC[C@@]23CCCN2C[C@H](F)C3)nc2c(F)c(-c3cccc4ccc(F)c(Cl)c34)ncc12)[C@@H]1CCN(C(=O)/C=C/[C@H]2CCN2CCO)C1 [Example 222, (E)-1-((R)-3-((7-(8-chloro-7-fluoronaphthalen-1-yl)-8-fluoro-2-(((2R,7aS)-2-fluorotetrahydro-1H-pyrrolizin-7a(5H)-yl)methoxy)pyrido[4,3-d]pyrimidin-4-yl)(methyl)amino)pyrrolidin-1-yl)-3-((R)-1-(2-hydroxyethyl)azetidin-2-yl)prop-2-en-1-one]	< 10
